Source: PMC12067093, “Discovery and optimisation of a covalent ligand for TRIM25 and its application to targeted protein ubiquitination” (Chemical Science, 2025)

Target: T1, E1 (His6-UBA1) (Mus musculus, UniProt Q02053)
T1 construct: made in house
T1 sequence (Q02053 1-1058): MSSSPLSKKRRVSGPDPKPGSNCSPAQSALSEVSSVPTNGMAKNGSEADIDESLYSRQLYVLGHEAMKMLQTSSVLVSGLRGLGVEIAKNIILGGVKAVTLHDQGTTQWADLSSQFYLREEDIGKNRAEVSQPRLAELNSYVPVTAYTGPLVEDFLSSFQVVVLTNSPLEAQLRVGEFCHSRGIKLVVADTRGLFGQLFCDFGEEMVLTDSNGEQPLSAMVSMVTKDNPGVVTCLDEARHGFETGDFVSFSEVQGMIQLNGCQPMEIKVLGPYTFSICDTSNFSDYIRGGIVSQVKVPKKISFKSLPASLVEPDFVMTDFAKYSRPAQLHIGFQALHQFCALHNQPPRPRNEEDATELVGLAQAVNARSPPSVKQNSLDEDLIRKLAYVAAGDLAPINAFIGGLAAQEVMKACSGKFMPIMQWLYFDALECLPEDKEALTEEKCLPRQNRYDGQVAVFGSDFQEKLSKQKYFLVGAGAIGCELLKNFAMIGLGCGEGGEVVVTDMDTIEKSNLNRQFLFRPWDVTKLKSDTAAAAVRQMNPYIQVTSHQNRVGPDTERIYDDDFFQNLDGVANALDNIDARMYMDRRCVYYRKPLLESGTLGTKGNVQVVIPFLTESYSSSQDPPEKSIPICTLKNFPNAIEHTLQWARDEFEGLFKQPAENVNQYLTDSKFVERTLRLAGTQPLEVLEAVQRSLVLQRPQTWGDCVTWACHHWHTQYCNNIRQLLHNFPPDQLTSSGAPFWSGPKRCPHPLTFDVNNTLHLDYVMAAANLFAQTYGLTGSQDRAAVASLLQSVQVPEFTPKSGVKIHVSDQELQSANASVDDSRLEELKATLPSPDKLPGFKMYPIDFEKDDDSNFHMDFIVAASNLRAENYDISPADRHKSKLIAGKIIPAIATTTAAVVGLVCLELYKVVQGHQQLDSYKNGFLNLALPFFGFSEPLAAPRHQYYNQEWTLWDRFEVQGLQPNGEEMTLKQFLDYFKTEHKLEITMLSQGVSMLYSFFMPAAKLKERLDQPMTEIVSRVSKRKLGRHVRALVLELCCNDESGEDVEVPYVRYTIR
Assay: E1~Ub loading assay
Type: biochemical
Conditions: E1 2 μM pre-treated with compound 100 μM for 30 min at RT; reducing and non-reducing conditions
Protocol: 2 Supplementary Figure 6 Further biochemical characterisation of purified
4 A) Schematic of auto-ubiquitination assay, with pre-labelled full-length TRIM25. Created in
5 BioRender. McPhie, K. (2025) https://BioRender.com/q86g447; B) Auto-ubiquitination time
7 µM) was incubated with compounds (50 µM) or DMSO (1%) for 16 h at 4 °C, before addition
8 of E1 (0.2 µM), UBCH5B (2 µM), Ub (50 µM), UbATTO (1 µM). The assay was initiated by the
9 addition of ATP, and performed for 60 min at 30 °C. Time point 0 was taken before the addition
10 of ATP. Samples were analysed by SDS-PAGE, with Coomassie staining and scanning at 700
11 nm wavelength (for ATTO emission).
12 of His10-TRIM25 (which has not been ubiquitinated) where % His10-TRIM25 (relative to time =
13 0 min) is plotted vs reaction time. Data are presented as n = 1; D) E1~Ub loading assay with
E1 (2 µM) was incubated with
15 compounds (100 µM) or DMSO (1%) for 30 min at RT, before addition of UBCH5B (2 µM) and
16 Ub (10 µM). The assay was initiated by the addition of ATP (1 mM), and performed for 5 min
17 at 30 °C. After 5 min, samples were treated with either loading dye, or loading dye with DTT,
18 and analysed by SDS-PAGE, with Coomassie staining; E) Cellular target identification for 11
19 (50 µM, left, and 10 µM, right, 4 h incubation at 37 °C in live THP-1 cells) using an […]

| SMILES | E1~Ub loading |
| --- | --- |
| Cc1cc(C(=O)N2CCCN(C(=O)CCl)CC2)ccc1-c1ccccc1 [Compound 10] | not inhibited |
| CC1Cc2ccccc2N1C(=O)C1CCCN(C(=O)CCl)C1 (centres unmarked) [Compound 11] | not inhibited |
